Molecules are shown by their SMILES.

One experiment concerns A489 cell line. Description: MR score in cisplatin treated versus control cells, Almeida et al. dataset GSE6410. Type of experiment: cell-based. The note with it: p=0.08. An excerpt:
The inventors have identified 10 published datasets describing drug sensitivity in cell lines. Three of them have been analyzed to show the potential of the MR signature for its association with drug sensitivity. […] A high MR score tends to be associated with low GI50 (sensitivity) in both drugs. In addition, in the Almeida et al.'s study (GSE6410), the MR score was lower in the cisplatin treated group than in the control group in A489 cell line (FIG. 20c).
Thousands and thousands of gene expression array data have been deposited at various public repositories, such as NCBI's Gene Expression Omnibus and EBI's ArrayExpress with more than 600,000 array data for each site (updated in October 2011; 100,000 more since January 2011). The broad and unrestricted microarray data have made in-silico validation of hypotheses accessible and feasible. For this invention, more than 1,000 microarray datasets have potential for performing in-silico validation (e.g., data related to the keyword “non-small cell lung cancer cell line” at GEO). First, appropriate datasets are identified for validation by reading the […] (at least abstract and experimental design). At this moment, more than 10 potential useful datasets have been identified. […] Molecular cancer therapeutics, 2008, 7(7); p. […]

For a further experiment, the system named is EGFR-mutant NSCLC. As to conditions: randomized phase III trial (Zhou et al.); cited from earlier work.

Turning to `N.N.[Cl][Pt][Cl]` [Cisplatin], the “MR score in treated group versus control group” value in the experiment with A489 cell line is “lower”.

`C#Cc1cccc(Nc2ncnc3cc(OCCOC)c(OCCOC)cc23)c1` [erlotinib]: the “efficacy compared with platinum-based chemotherapy” value in the experiment with EGFR-mutant NSCLC is recorded as “superior to platinum-based chemotherapy”.

The record behind these values is patent US20130252831A1, “METHOD OF DIAGNOSING EARLY STAGE NON-SMALL CELL LUNG CANCER” (H. Lee Moffitt Cancer Center and Research Institute, Inc., priority 2010, published 2013).
